Test results reported in patent EP4631941A1 (Jiangsu Tasly Diyi Pharmaceutical Co., Ltd., priority 2022, dated 2024).
Where a name gives a salt, the structure may show the parent alone.

target: T1, DYRK2 kinase (Homo sapiens, UniProt Q92630); assay: DYRK2 kinase activity analysis assay (33P-ATP, DYRKtide substrate, P81 filter paper); format: biochemical; conditions: 2 hours at room temperature, read-out: IC50
T1 sequence (Q92630 1-601): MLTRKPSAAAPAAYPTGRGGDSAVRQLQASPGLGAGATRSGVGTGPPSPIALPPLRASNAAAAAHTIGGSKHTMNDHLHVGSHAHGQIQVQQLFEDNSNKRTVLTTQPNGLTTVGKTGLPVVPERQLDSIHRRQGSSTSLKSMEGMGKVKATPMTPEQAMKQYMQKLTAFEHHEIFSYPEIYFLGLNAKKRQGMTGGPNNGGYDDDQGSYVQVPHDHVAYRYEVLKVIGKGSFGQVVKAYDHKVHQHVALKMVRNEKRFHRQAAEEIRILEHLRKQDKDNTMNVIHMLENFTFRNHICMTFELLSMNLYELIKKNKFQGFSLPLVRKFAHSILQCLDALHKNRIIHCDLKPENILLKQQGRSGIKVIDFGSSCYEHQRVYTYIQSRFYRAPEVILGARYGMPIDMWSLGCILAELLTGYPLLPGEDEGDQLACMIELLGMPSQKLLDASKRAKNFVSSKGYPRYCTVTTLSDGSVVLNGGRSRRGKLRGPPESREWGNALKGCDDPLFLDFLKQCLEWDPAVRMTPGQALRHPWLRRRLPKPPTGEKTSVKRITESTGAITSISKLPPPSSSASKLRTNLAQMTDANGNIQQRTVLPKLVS

`Cc1cnc(Nc2ccc(CN3CCN(C(C)C)CC3)cn2)nc1-c1ccc2scnc2c1` [Example 1, 4-(benzothiazole-5-yl)-N-(5-((4-isopropylpiperazine-1-yl)methyl)pyridine-2-yl)-5-methylpyri midine-2-amine] and `Cc1cnc(Nc2ccc(CN3CCNCC3)cn2)nc1-c1ccc2scnc2c1` [Example 2, hydrochloride] are within 1.5-fold of each other in IC50: 1470 nM for the first, 1420 nM for the second.

Compared with `CCN1CCN(C(=O)c2ccc(Nc3ncc(C)c(-c4ccc5scnc5c4)n3)nc2)CC1` [Example 3, (6-((4-(benzothiazole-5-yl)-5-methylpyrimidine-2-yl)amino)pyridine-3-yl)(4-ethylpiperazine-1-yl)ketone], `CCN1CCN(C(=O)c2ccc(Nc3ncc(F)c(-c4ccc5scnc5c4)n3)nc2)CC1` [Example 14, (6-((4-(benzothiazole-5-yl)-5-fluoropyrimidine-2-yl)amino)pyridine-3-yl)(4-ethylpiperazine-1-yl)ketone] is 23-fold lower in IC50: 498 nM for the first, 22 nM for the second. The second is the more potent here.

Going from `Cc1cnc(Nc2ccc(C(=O)N3CCN(C(=O)OC(C)(C)C)CC3)cn2)nc1-c1ccc2scnc2c1` [Example 4, tert-butyl 4-(6-((4-(benzothiazole-5-yl)-5-methylpyrimidine-2-yl)amino)nicotinoyl)piperazine-1-carboxylate] to `CC(C)(C)OC(=O)N1CCN(C(=O)c2ccc(Nc3ncc(F)c(-c4ccc5scnc5c4)n3)nc2)CC1` [Example 19, tert-butyl 4-(6-((4-(benzothiazole-5-yl)-5-fluoropyrimidine-2-yl)amino)nicotinoyl)piperazine-1-carboxylate], the IC50 falls from 268 nM to 70 nM (3.8-fold). The second is the more potent here.

Compared with `Cc1cnc(Nc2ccc(C(=O)N3CCNCC3)cn2)nc1-c1ccc2scnc2c1` [Example 5, (6-((4-(benzothiazole-5-yl)-5-methylpyrimidine-2-yl)amino)pyridine-3-yl)(piperazine-1-yl)ketone hydrochloride], `COc1cnc(Nc2ccc(C(=O)N3CCNCC3)cn2)nc1-c1ccc2scnc2c1` [Example 6, (6-((4-(benzothiazole-5-yl)-5-methoxypyrimidine-2-yl)amino)pyridine-3-yl)(piperazine-1-yl)k etone hydrochloride] is 2.2-fold higher in IC50: 357 nM for the first, 774 nM for the second. The first is the more potent here.

Going from `COc1cnc(Nc2ccc(CN3CCNCC3)cn2)nc1-c1ccc2scnc2c1` [Example 7, 4-(benzothiazole-5-yl)-5-methoxy-N-(5-(piperazine-1-ylmethyl)pyridine-2-yl)pyrimidine-2-amine hydrochloride] to `Fc1cnc(Nc2ccc(CN3CCNCC3)cn2)nc1-c1ccc2scnc2c1` [Example 13, 4-(benzothiazole-5-yl)-5-fluoro-N-(5-(piperazine-1-methylene)pyridine-2-yl)pyrimidine-2-amine hydrochloride], the IC50 falls from 779 nM to 216 nM (3.6-fold).

Compared with `c1cc(-c2ccc3scnc3c2)nc(Nc2ccc(CN3CCNCC3)cn2)n1` [Example 8, 4-(benzothiazole-5-yl)-N-(5-(piperazine-1-methylene)pyridine-2-yl)pyrimidine-2-amine hydrochloride], `O=C(c1ccc(Nc2nccc(-c3ccc4scnc4c3)n2)nc1)N1CCNCC1` [Example 11, (6-((4-(benzothiazole-5-yl)pyrimidine-2-yl)amino)pyridine-3-yl)(piperazine-1-yl)ketone hydrochloride] is 3.3-fold lower in IC50: 636 nM for the first, 190 nM for the second.

`CCN1CCN(C(=O)c2ccc(Nc3nccc(-c4ccc5scnc5c4)n3)nc2)CC1` [Example 9, (6-((4-(benzothiazole-5-yl)pyrimidine-2-yl)amino)pyridine-3-yl)(4-ethylpiperazine-1-yl)ketone] and `CC(C)(C)OC(=O)N1CCN(C(=O)c2ccc(Nc3nccc(-c4ccc5scnc5c4)n3)nc2)CC1` [Example 10, tert-butyl 4-(6-((4-(benzothiazole-5-yl)pyrimidine-2-yl)amino)nicotinoyl)piperazine-1-carboxylate] are within 1.5-fold of each other in IC50: 67 nM for the first, 99 nM for the second.

Compared with `CCN1CCN(Cc2ccc(Nc3ncc(F)c(-c4ccc5scnc5c4)n3)nc2)CC1` [Example 12], `CCN1CCN(C(=O)c2ccc(Nc3ncc(F)c(-c4ccc5scnc5c4)n3)cn2)CC1` [Example 24, (5-((4-(benzothiazole-5-yl)-5-fluoropyrimidine-2-yl)amino)pyridine-2-yl)(4-ethylpiperazine-1-yl)ketone] is 29-fold lower in IC50: 430 nM for the first, 15 nM for the second. The second is the more potent here.

`CC(=O)N1CCN(C(=O)c2ccc(Nc3ncc(F)c(-c4ccc5scnc5c4)n3)nc2)CC1` [Example 15, 1-(4-(6-((4-(benzothiazole-5-yl)-5-fluoropyrimidine-2-yl)amino)nicotinoyl)piperazine-1-yl)ethyl-1-one] and `CCOC(=O)N1CCN(C(=O)c2ccc(Nc3ncc(F)c(-c4ccc5scnc5c4)n3)nc2)CC1` [Example 18, ethyl 4-(6-((4-(benzothiazole-5-yl)-5-fluoropyrimidine-2-yl)amino)nicotinoyl) piperazine-1-carboxylate] are within 1.5-fold of each other in IC50: 28 nM for the first, 29 nM for the second.

First: O=C(c1ccc(Nc2ncc(F)c(-c3ccc4scnc4c3)n2)nc1)N1CCN(c2ccccc2)CC1 [Example 17, (6-((4-(benzothiazole-5-yl)-5-fluoropyrimidine-2-yl)amino)pyridine-3-yl)(4-phenylpiperazine-1-yl)ketone]
Second: CCN1CCN(C(=O)c2cnc(Nc3ncc(F)c(-c4ccc5scnc5c4)n3)nc2)CC1 [Example 21, (2-((4-(benzothiazole-5-yl)-5-fluoropyrimidine-2-yl)amino)pyrimidine-5-yl)(4-ethylpiperazine-1-yl)ketone]
The IC50 of the first is 19-fold lower: 56 nM for the first, 1050 nM for the second.

First: CC(C)(C)OC(=O)N1CCN(C(=O)c2cnc(Nc3ncc(F)c(-c4ccc5scnc5c4)n3)nc2)CC1 [Example 22, tert-butyl 4-(2-((4-(benzothiazole-5-yl)-5-fluoropyrimidine-2-yl)amino)pyrimidine-5-carbonyl)piperazine-1-c arboxylate]
Second: CC(C)(C)OC(=O)N1CCN(c2ccc(Nc3ncc(F)c(-c4ccc5scnc5c4)n3)cn2)CC1 [Example 25, tert-butyl 4-(5-((4-(benzothiazole-5-yl)-5-fluoropyrimidine-2-yl)amino)pyridine-2-yl)piperazine-1-carboxylate]
The IC50 of the first is 33-fold higher: 535 nM for the first, 16 nM for the second.

First: O=C(c1cnc(Nc2ncc(F)c(-c3ccc4scnc4c3)n2)nc1)N1CCNCC1 [Example 23, (2-((4-(benzothiazole-5-yl)-5-fluoropyrimidine-2-yl)amino)pyrimidine-5-yl)(piperazine-1-yl)k etone hydrochloride]
Second: O=C(c1ccc(Nc2ncc(F)c(-c3ccc4scnc4c3)n2)cn1)N1CCNCC1 [Example 26, (5-((4-(benzothiazole-5-yl)-5-fluoropyrimidine-2-yl)amino)pyridine-2-yl)(piperazine-1-yl)ketone hydrochloride]
The IC50 of the first is 170-fold higher: 695 nM for the first, 4 nM for the second.

First: CN(C)c1nc2cc(-c3nc(Nc4ccc(C(=O)N5CCNCC5)cn4)ncc3F)ccc2s1 [Example 27, (6-((4-(2-(dimethylamino)benzothiazole-5-yl)-5-fluoropyrimidine-2-yl)amino)pyridine-3-yl)(piperazine-1-yl)ketone hydrochloride]
Second: CCN(CC)c1nc2cc(-c3nc(Nc4ccc(C(=O)N5CCNCC5)cn4)ncc3F)ccc2s1 [Example 28, (6-((4-(2-(diethylamino)benzothiazole-5-yl)-5-fluoropyrimidine-2-yl)amino)pyridine-3-yl)(piperazine-1-yl)ketone hydrochloride]
The IC50 of the first is 1.9-fold lower: 18 nM for the first, 35 nM for the second. The first is the more potent here.

Compared with `CCN1CCN(C(=O)c2ccc(Nc3ncc(F)c(-c4ccc5sc(N(C)C)nc5c4)n3)cn2)CC1` [Example 29, (5-((4-(2-(dimethylamino)benzothiazole-5-yl)-5-fluoropyrimidine-2-yl)amino)pyridine-2-yl)(4-ethylpiperazine-1-yl)ketone], `CCN1CCN(C(=O)c2ccc(Nc3ncc(F)c(-c4ccc5sc(N(CC)CC)nc5c4)n3)cn2)CC1` [Example 33, (5-((4-(2-(diethylamino)benzothiazole-5-yl)-5-fluoropyrimidine-2-yl)amino)pyridine-2-yl)(4-ethylpiperazine-1-yl)ketone] is 2.6-fold higher in IC50: 11 nM for the first, 29 nM for the second. The first is the more potent here.

First: CC(C)N1CCN(C(=O)c2ccc(Nc3ncc(F)c(-c4ccc5sc(N(C)C)nc5c4)n3)cn2)CC1 [Example 30, (5-((4-(2-(dimethylamino)benzothiazole-5-yl)-5-fluoropyrimidine-2-yl)amino)pyridine-2-yl)(4-isopropylpiperazine-1-yl)ketone]
Second: CCN(CC)c1nc2cc(-c3nc(Nc4ccc(C(=O)N5CCN(C(C)C)CC5)nc4)ncc3F)ccc2s1 [Example 34, (5-((4-(2-(diethylamino)benzothiazole-5-yl)-5-fluoropyrimidine-2-yl)amino)pyridine-2-yl)(4-isopropylpiperazine-1-yl)ketone]
The IC50 of the first is 3.5-fold lower: 13 nM for the first, 45 nM for the second.

Compound `CN(C)c1nc2cc(-c3nc(Nc4ccc(C(=O)N5CCNCC5)nc4)ncc3F)ccc2s1` [Example 32, (5-((4-(2-(dimethylamino)benzothiazole-5-yl)-5-fluoropyrimidine-2-yl)amino)pyridine-2-yl)(piperazine-1-yl)ketone hydrochloride] has an IC50 of 9 nM.

same assay, conditions: IC50 (nM), 2 hours at room temperature

Going from `CN(C)c1nc2cc(-c3nc(Nc4ccc(C(=O)N5CCN(C(=O)OC(C)(C)C)CC5)nc4)ncc3F)ccc2s1` [Example 31] to `CC(=O)N1CCN(C(=O)c2ccc(Nc3ncc(F)c(-c4ccc5nc(N(C)C)sc5c4)n3)nc2)CC1` [Example 35, 1-(4-(6-((4-(2-(dimethylamino)benzothiazole-6-yl)-5-fluoropyrimidine-2-yl)amino)nicotinoyl)piperazine-1-yl)ethyl-1-one], the IC50 falls from 590 nM to 22 nM (27-fold). The second is the more potent here.
